Measurements from patent publication US20230157952A1, “METHOD FOR IMPROVING THE STABILITY OF A PHARMACEUTICAL COMPOSITION COMPRISING A HIGH PENETRATION DRUG, AND THE PHARMACEUTICAL COMPOSITION OBTAINED THEREFROM” (Techfields Inc., priority 2020, published 2023).
Blank lines part the entries; values can stand above or below the compound they belong to.

Assay: Effect of temperature (and pH) on the stability of the solution (purity)
Format: physicochemical

Structure (SMILES): CCN(CC)CCOC(=O)C(C)c1ccc(-c2ccccc2)c(F)c1.Cl (racemic)
Purity(%) at day 21 (5° C.) (7% solution in water, pH 1.0, day 21, 5° C.): 94.0 ± 0.3%
Purity(%) at day 21 (25° C.) (7% solution in water, pH 1.0, day 21, 25° C.): 72.0 ± 0.3%
Purity(%) at day 21 (40° C.) (7% solution in water, pH 1.0, day 21, 40° C.): 18.5 ± 0.3%
Purity (%) at day 21 (60° C.) (7% solution in water, pH 1.0, day 21, 60° C.): 0%
Purity(%) at day 21 (25° C.) (7% solution in water, pH 2.0, day 21, 25° C.): 86.1 ± 0.3%
Purity(%) at day 21 (40° C.) (7% solution in water, pH 2.0, day 21, 40° C.): 30.1 ± 0.4%
Purity (%) at day 21 (60° C.) (7% solution in water, pH 2.0, day 21, 60° C.): 0%
Purity(%) at day 21 (25° C.) (7% solution in water, pH 3.0, day 21, 25° C.): 96.0 ± 0.2%
Purity(%) at day 21 (40° C.) (7% solution in water, pH 3.0, day 21, 40° C.): 56.5 ± 0.3%
Purity (%) at day 21 (60° C.) (7% solution in water, pH 3.0, day 21, 60° C.): 8.7 ± 0.3%
Purity(%) at day 21 (25° C.) (7% solution in water, pH 3.7, day 21, 25° C.): 97.5 ± 0.1%
Purity(%) at day 21 (40° C.) (7% solution in water, pH 3.7, day 21, 40° C.): 64.5 ± 0.3%
Purity (%) at day 21 (60° C.) (7% solution in water, pH 3.7, day 21, 60° C.): 16.2 ± 0.3%
Purity(%) at day 21 (40° C.) (7% solution in water, pH 4.0, day 21, 40° C.): 72.3 ± 0.3%
Purity (%) at day 21 (60° C.) (7% solution in water, pH 4.0, day 21, 60° C.): 22.4 ± 0.3%
Purity(%) at day 21 (40° C.) (7% solution in water, pH 4.3, day 21, 40° C.): 72.2 ± 0.3%
Purity (%) at day 21 (60° C.) (7% solution in water, pH 4.3, day 21, 60° C.): 18.3 ± 0.2%
Purity(%) at day 21 (40° C.) (7% solution in water, pH 4.6, day 21, 40° C.): 58.1 ± 0.4%
Purity (%) at day 21 (60° C.) (7% solution in water, pH 4.6, day 21, 60° C.): 10.4 ± 0.3%
Purity(%) at day 21 (5° C.) (7% solution in water, pH 5.0, day 21, 5° C.): 97.6 ± 0.2%
Purity(%) at day 21 (25° C.) (7% solution in water, pH 5.0, day 21, 25° C.): 96.7 ± 0.2%
Purity(%) at day 21 (40° C.) (7% solution in water, pH 5.0, day 21, 40° C.): 50.1 ± 0.3%
Purity (%) at day 21 (60° C.) (7% solution in water, pH 5.0, day 21, 60° C.): 3.0 ± 0.3%
Purity(%) at day 21 (5° C.) (7% solution in water, pH 6.0, day 21, 5° C.): 95.4 ± 0.2%
Purity(%) at day 21 (25° C.) (7% solution in water, pH 6.0, day 21, 25° C.): 90.5 ± 0.3%
Purity(%) at day 21 (40° C.) (7% solution in water, pH 6.0, day 21, 40° C.): 29.7 ± 0.4%
Purity (%) at day 21 (60° C.) (7% solution in water, pH 6.0, day 21, 60° C.): 0%
Purity(%) at day 21 (5° C.) (7% solution in water, pH 7.0, day 21, 5° C.): 89.7 ± 0.3%
Purity(%) at day 21 (25° C.) (7% solution in water, pH 7.0, day 21, 25° C.): 75.1 ± 0.3%
Purity(%) at day 21 (40° C.) (7% solution in water, pH 7.0, day 21, 40° C.): 19.8 ± 0.3%
Purity (%) at day 21 (60° C.) (7% solution in water, pH 7.0, day 21, 60° C.): 0%
Purity(%) at day 21 (5° C.) (7% solution in water, pH 8.0, day 21, 5° C.): 81.9 ± 0.3%
Purity(%) at day 21 (25° C.) (7% solution in water, pH 8.0, day 21, 25° C.): 52.8 ± 0.3%
Purity(%) at day 21 (40° C.) (7% solution in water, pH 8.0, day 21, 40° C.): 0%
Purity (%) at day 21 (60° C.) (7% solution in water, pH 8.0, day 21, 60° C.): 0%

Purity (%) at day 21 (60° C.) (pH 1.02, 7% solution in water): 0%
Purity(%) at day 21 (5° C.) (pH 1.02, 7% solution in water): 93.8 ± 0.2%
Purity(%) at day 21 (25° C.) (pH 1.02, 7% solution in water): 72.2 ± 0.2%
Purity(%) at day 21 (40° C.) (pH 1.02, 7% solution in water): 18.1 ± 0.3%
Purity (%) at day 21 (60° C.) (pH 2.09, 7% solution in water): 0%
Purity(%) at day 21 (25° C.) (pH 2.09, 7% solution in water): 86.3 ± 0.2%
Purity(%) at day 21 (40° C.) (pH 2.09, 7% solution in water): 30.2 ± 0.4%
Purity (%) at day 21 (60° C.) (pH 3.00, 7% solution in water): 7.9 ± 0.2%
Purity(%) at day 21 (25° C.) (pH 3.00, 7% solution in water): 96.3 ± 0.2%
Purity(%) at day 21 (40° C.) (pH 3.00, 7% solution in water): 56.7 ± 0.2%
Purity (%) at day 21 (60° C.) (pH 3.68, 7% solution in water): 15.3 ± 0.4%
Purity(%) at day 21 (40° C.) (pH 3.68, 7% solution in water): 63.7 ± 0.2%
Purity (%) at day 21 (60° C.) (pH 4.07, 7% solution in water): 21.5 ± 0.3%
Purity(%) at day 21 (40° C.) (pH 4.07, 7% solution in water): 72.5 ± 0.3%
Purity (%) at day 21 (60° C.) (pH 4.35, 7% solution in water): 18.7 ± 0.2%
Purity(%) at day 21 (40° C.) (pH 4.35, 7% solution in water): 72.3 ± 0.2%
Purity (%) at day 21 (60° C.) (pH 4.67, 7% solution in water): 10.6 ± 0.2%
Purity(%) at day 21 (40° C.) (pH 4.67, 7% solution in water): 58.5 ± 0.2%
Purity (%) at day 21 (60° C.) (pH 4.95, 7% solution in water): 3.1 ± 0.3%
Purity(%) at day 21 (25° C.) (pH 4.95, 7% solution in water): 95.5 ± 0.3%
Purity(%) at day 21 (40° C.) (pH 4.95, 7% solution in water): 50.6 ± 0.2%
Purity (%) at day 21 (60° C.) (pH 5.98, 7% solution in water): 0%
Purity(%) at day 21 (5° C.) (pH 5.98, 7% solution in water): 96.1 ± 0.2%
Purity(%) at day 21 (25° C.) (pH 5.98, 7% solution in water): 90.7 ± 0.3%
Purity(%) at day 21 (40° C.) (pH 5.98, 7% solution in water): 30.3 ± 0.3%
Purity (%) at day 21 (60° C.) (pH 6.98, 7% solution in water): 0%
Purity(%) at day 21 (5° C.) (pH 6.98, 7% solution in water): 90.9 ± 0.2%
Purity(%) at day 21 (25° C.) (pH 6.98, 7% solution in water): 70.8 ± 0.2%
Purity(%) at day 21 (40° C.) (pH 6.98, 7% solution in water): 19.9 ± 0.3%
Purity (%) at day 21 (60° C.) (pH 8.01, 7% solution in water): 0%
Purity(%) at day 21 (5° C.) (pH 8.01, 7% solution in water): 81.9 ± 0.2%
Purity(%) at day 21 (25° C.) (pH 8.01, 7% solution in water): 58.8 ± 0.2%
Purity(%) at day 21 (40° C.) (pH 8.01, 7% solution in water): 0%
Structure (SMILES): CCN(CC)CCOC(=O)[C@H](C)c1ccc2cc(OC)ccc2c1.Cl (racemic)
